Active and inactive are the calls of the source. How the calls were made is not given here.
System: CCRIS mutagenicity, Ames/micronucleus/aberration tests
Assay: CCRIS mutagenicity studies
[1] = Test System: AMES SALMONELLA TYPHIMURIUM, Strain/Indicator: TA98, Metabolic Activation: RAT, LIVER, S-9, AROCLOR 1254, Method: STANDARD PLATE
[2] = Test System: AMES SALMONELLA TYPHIMURIUM, Strain/Indicator: TA98, Metabolic Activation: NONE, Method: STANDARD PLATE
[3] = Test System: AMES SALMONELLA TYPHIMURIUM, Strain/Indicator: TA100, Metabolic Activation: NONE, Method: STANDARD PLATE
[4] = Test System: AMES SALMONELLA TYPHIMURIUM, Strain/Indicator: TA100, Metabolic Activation: RAT, LIVER, S-9, AROCLOR 1254, Method: STANDARD PLATE
[5] = Test System: AMES SALMONELLA TYPHIMURIUM, Strain/Indicator: TA102, Metabolic Activation: NONE, Method: STANDARD PLATE
[6] = Test System: AMES SALMONELLA TYPHIMURIUM, Strain/Indicator: TA102, Metabolic Activation: RAT, LIVER, S-9, AROCLOR 1254, Method: STANDARD PLATE
[7] = Test System: AMES SALMONELLA TYPHIMURIUM, Strain/Indicator: TA1535, Metabolic Activation: NONE, Method: STANDARD PLATE
[8] = Test System: AMES SALMONELLA TYPHIMURIUM, Strain/Indicator: TA1537, Metabolic Activation: NONE, Method: STANDARD PLATE
[9] = Test System: E. COLI, Strain/Indicator: WP2 UVRA, Metabolic Activation: NONE, Method: STANDARD PLATE

SMILES: O=[N+]([O-])c1cccc2cccc([N+](=O)[O-])c12
- mutagenic call (End Point: IN VITRO CHROMOSOMAL ABERRATIONS, Test System: CHL CELLS, Metabolic Activation: NONE): inactive; negative
- mutagenic call (End Point: IN VITRO CHROMOSOMAL ABERRATIONS, Test System: CHL CELLS, Metabolic Activation: RAT, LIVER, S-9, SODIUM PHENOBARBITAL AND 5,6-BENZOFLAVONE): active; positive (structural changes)
- mutagenic call (Test System: AMES SALMONELLA TYPHIMURIUM, Strain/Indicator: TA98, Metabolic Activation: HAMSTER, LIVER, S-9, AROCLOR 1254, FLAVIN MONONUCLEOTIDE, Method: PREINCUBATION): active; positive
- mutagenic call (Test System: AMES SALMONELLA TYPHIMURIUM, Strain/Indicator: TA98, Metabolic Activation: HAMSTER, LIVER, S-9, AROCLOR 1254, Method: PREINCUBATION): active; positive
- mutagenic call (Test System: AMES SALMONELLA TYPHIMURIUM, Strain/Indicator: TA98, Metabolic Activation: NONE, Method: PREINCUBATION): active; positive
- mutagenic call (Test System: AMES SALMONELLA TYPHIMURIUM, Strain/Indicator: TA98, Metabolic Activation: RAT LIVER S-9, PHENOBARBITAL AND BETA-NAPHTHOFLAVONE, Method: PREINCUBATION): active; positive
- mutagenic call (Test System: AMES SALMONELLA TYPHIMURIUM, Strain/Indicator: TA98, Metabolic Activation: RAT, LIVER, S-9, AROCLOR 1254, FLAVIN MONONUCLEOTIDE, Method: PREINCUBATION): active; positive
- mutagenic call [1]: active; positive
- mutagenic call (Test System: AMES SALMONELLA TYPHIMURIUM, Strain/Indicator: TA100, Metabolic Activation: NONE, Method: PREINCUBATION): active; positive
- mutagenic call (Test System: AMES SALMONELLA TYPHIMURIUM, Strain/Indicator: TA100, Metabolic Activation: RAT LIVER S-9, PHENOBARBITAL AND BETA-NAPHTHOFLAVONE, Method: PREINCUBATION): active; positive
- mutagenic call (Test System: AMES SALMONELLA TYPHIMURIUM, Strain/Indicator: TA1535, Metabolic Activation: NONE, Method: PREINCUBATION): inactive; negative
- mutagenic call (Test System: AMES SALMONELLA TYPHIMURIUM, Strain/Indicator: TA1535, Metabolic Activation: RAT LIVER S-9, PHENOBARBITAL AND BETA-NAPHTHOFLAVONE, Method: PREINCUBATION): inactive; negative
- mutagenic call (Test System: AMES SALMONELLA TYPHIMURIUM, Strain/Indicator: TA1537, Metabolic Activation: NONE, Method: PREINCUBATION): active; positive
- mutagenic call (Test System: AMES SALMONELLA TYPHIMURIUM, Strain/Indicator: TA1537, Metabolic Activation: RAT LIVER S-9, PHENOBARBITAL AND BETA-NAPHTHOFLAVONE, Method: PREINCUBATION): active; positive
- mutagenic call (Test System: AMES SALMONELLA TYPHIMURIUM, Strain/Indicator: TA1538, Metabolic Activation: NONE, Method: PREINCUBATION): active; positive
- mutagenic call (Test System: AMES SALMONELLA TYPHIMURIUM, Strain/Indicator: TA1538, Metabolic Activation: RAT LIVER S-9, PHENOBARBITAL AND BETA-NAPHTHOFLAVONE, Method: PREINCUBATION): active; positive
- mutagenic call (Test System: E.COLI, Strain/Indicator: WP2UVRA, Metabolic Activation: NONE, Method: PREINCUBATION): inactive; negative
- mutagenic call (Test System: E.COLI, Strain/Indicator: WP2UVRA, Metabolic Activation: RAT LIVER S-9, PHENOBARBITAL AND BETA-NAPHTHOFLAVONE, Method: PREINCUBATION): active; positive

SMILES: Cc1ccccc1-c1nc2ccccc2o1
- mutagenic call [2]: inactive; negative
- mutagenic call (Test System: AMES SALMONELLA TYPHIMURIUM, Strain/Indicator: TA98, Metabolic Activation: S-9, Method: STANDARD PLATE): inactive; negative

SMILES: N#Cc1c(Cl)cccc1Cl
- mutagenic call (Test System: AMES SALMONELLA TYPHIMURIUM, Strain/Indicator: TA97, Metabolic Activation: NONE, Method: STANDARD PLATE): inactive; negative
- mutagenic call (Test System: AMES SALMONELLA TYPHIMURIUM, Strain/Indicator: TA97, Metabolic Activation: RAT, LIVER, S-9, AROCLOR 1254, Method: STANDARD PLATE): inactive; negative
- mutagenic call [2]: inactive; negative
- mutagenic call [1]: inactive; negative
- mutagenic call [3]: inactive; negative
- mutagenic call [4]: inactive; negative
- mutagenic call [5]: inactive; negative
- mutagenic call [6]: inactive; negative

SMILES: CCc1cccc2c(CCO)c[nH]c12
- mutagenic call [2]: inactive; negative
- mutagenic call (Test System: AMES SALMONELLA TYPHIMURIUM, Strain/Indicator: TA98, Metabolic Activation: RAT, LIVER, S-9, Method: STANDARD PLATE): inactive; negative
- mutagenic call [3]: inactive; negative
- mutagenic call (Test System: AMES SALMONELLA TYPHIMURIUM, Strain/Indicator: TA100, Metabolic Activation: RAT, LIVER, S-9, Method: STANDARD PLATE): inactive; negative
- mutagenic call [7]: inactive; negative
- mutagenic call (Test System: AMES SALMONELLA TYPHIMURIUM, Strain/Indicator: TA1535, Metabolic Activation: RAT, LIVER, S-9, Method: STANDARD PLATE): inactive; negative
- mutagenic call [8]: inactive; negative
- mutagenic call (Test System: AMES SALMONELLA TYPHIMURIUM, Strain/Indicator: TA1537, Metabolic Activation: RAT, LIVER, S-9, Method: STANDARD PLATE): inactive; negative
- mutagenic call [9]: inactive; negative
- mutagenic call (Test System: E. COLI, Strain/Indicator: WP2 UVRA, Metabolic Activation: RAT, LIVER, S-9, Method: STANDARD PLATE): inactive; negative

SMILES: Clc1ccc2c(c1)C(c1ccccc1)=NCc1nncn1-2
- mutagenic call [2]: inactive; negative
- mutagenic call [1]: inactive; negative
- mutagenic call [3]: inactive; negative
- mutagenic call [4]: inactive; negative
- mutagenic call [5]: inactive; negative
- mutagenic call [6]: inactive; negative
- mutagenic call [7]: inactive; negative
- mutagenic call (Test System: AMES SALMONELLA TYPHIMURIUM, Strain/Indicator: TA1535, Metabolic Activation: RAT, LIVER, S-9, AROCLOR 1254, Method: STANDARD PLATE): inactive; negative
- mutagenic call [8]: inactive; negative
- mutagenic call (Test System: AMES SALMONELLA TYPHIMURIUM, Strain/Indicator: TA1537, Metabolic Activation: RAT, LIVER, S-9, AROCLOR 1254, Method: STANDARD PLATE): inactive; negative
- mutagenic call [9]: inactive; negative
- mutagenic call (Test System: E. COLI, Strain/Indicator: WP2 UVRA, Metabolic Activation: RAT, LIVER, S-9, AROCLOR 1254, Method: STANDARD PLATE): inactive; negative

SMILES: Fc1ccc2c3c(cccc13)-c1c-2ccc2ccccc12
- mutagenic call (Test System: AMES SALMONELLA TYPHIMURIUM, Strain/Indicator: TA97A, Metabolic Activation: RAT, LIVER, S-9, AROCLOR 1254, Method: PREINCUBATION): active; positive
- mutagenic call (Test System: AMES SALMONELLA TYPHIMURIUM, Strain/Indicator: TA98, Metabolic Activation: RAT, LIVER, S-9, AROCLOR 1254, Method: PREINCUBATION): active; positive
- mutagenic call (Test System: AMES SALMONELLA TYPHIMURIUM, Strain/Indicator: TA100, Metabolic Activation: RAT, LIVER, S-9, AROCLOR 1254, Method: PREINCUBATION): active; positive

SMILES: COCC=O
- mutagenic call (Test System: AMES SALMONELLA TYPHIMURIUM, Strain/Indicator: TA97A, Metabolic Activation: NONE, Method: STANDARD PLATE): active; positive
- mutagenic call (Test System: AMES SALMONELLA TYPHIMURIUM, Strain/Indicator: TA97A, Metabolic Activation: RAT, LIVER, S-9, AROCLOR 1254, Method: STANDARD PLATE): active; positive
- mutagenic call [2]: inactive; negative
- mutagenic call [1]: inactive; negative
- mutagenic call [3]: inactive; negative
- mutagenic call [4]: inactive; negative
- mutagenic call [5]: inactive; negative
- mutagenic call [6]: inactive; negative
- mutagenic call (Test System: CHINESE HAMSTER OVARY, Strain/Indicator: CHO AS52 (GPT)/6-THIOGUANINE, Metabolic Activation: NONE): active; positive
- mutagenic call (Test System: CHINESE HAMSTER OVARY, Strain/Indicator: CHO-AS52/6-THIOGUANINE, Metabolic Activation: NONE): active; positive
- mutagenic call (Test System: CHINESE HAMSTER OVARY, Strain/Indicator: CHO-K1-BH4 (HGPRT)/6-THIOGUANINE, Metabolic Activation: NONE): inactive; negative
- mutagenic call (Test System: CHINESE HAMSTER OVARY, Strain/Indicator: CHO-K1-BH4 (HGPRT)/6-THIOGUANINE, Metabolic Activation: RAT, LIVER, S-9, AROCLOR 1254): inactive; negative
- mutagenic call (Test System: CHINESE HAMSTER V-79, Strain/Indicator: V-79 (HPRT)/6-THIOGUANINE, Metabolic Activation: NONE): active; positive
